Measured values from US20120183635A1, “ROSEMARY EXTRACTS, DIETARY AND PHARMACEUTICAL COMPOSITIONS CONTAINING THEM AND THEIR USES” (DSM IP ASSETS B.V., priority 2006, published 2012).

Tested on: duration of immobility
Experiment: Porsolt's Forced Swim Test (FST) in the mouse
Type: in vivo
Details: 32 mg/kg p.o., −24, −5, −1 h
Procedure: Mice were individually placed in a cylinder (Height=24.5 cm, Diameter=19.5 cm) containing 13.5 cm water (22° C.) from which they could not escape. The mice were placed in the water for 6 min and the duration of immobility during the last 4 min was measured. Ten mice were studied per group. Rosemary extract (dissolved in corn oil) was evaluated at 272, 409 and 545 mg/kg body weight, administered orally 24, 5, and 1 h before the test, and compared with a vehicle-treated control group. Imipramine (32 mg/kg, p.o.; dissolved in distilled water), administered under the same experimental conditions, was used as reference substance. Data were analysed by comparing all groups using one-way Analysis of Variance (ANOVA) and the Bonferroni post-hoc test.

`CN(C)CCCN1c2ccccc2CCc2ccccc21` [Imipramine, imipramine] was tested, and the “DURATION OF IMMOBILITY % change from control” value was −59% and the “DURATION OF IMMOBILITY (as % total test time) mean ± S.D.” value was 17.75 ± 9.92 % total test time.
